Paper doi:10.1101/2025.10.13.682046v1 (biorxiv, 2025)

Molecular target: CIP2A(1-560) (Homo sapiens, UniProt Q8TCG1)
Assay: microscale thermophoresis
Format: binding

Kd [µM] | SMILES
8.4 | CC(C)=CCC[C@]1(C)C=Cc2c(O)c3c(c(CC=C(C)C)c2O1)O[C@]12C(=C[C@@H]4C[C@H]1C(C)(C)O[C@@]2(C/C=C(/C)C(=O)N1CCOCC1)C4=O)C3=O [DAP-19]
4.2 | CC(C)=CCC/C(C)=C/Cc1c(O)c(CC=C(C)C)c2c(c1O)C(=O)C1=C[C@@H]3C[C@H]4C(C)(C)O[C@@](C/C=C(/C)C(=O)NCCCCCNC(=O)CCCC[C@@H]5SC[C@@H]6NC(=O)N[C@@H]65)(C3=O)[C@@]14O2 [bGNA, biotinylated gambogenic acid]

SMILES | Kd [µM]
CC(C)=CCC[C@]1(C)C=Cc2c(O)c3c(c(CC=C(C)C)c2O1)O[C@]12C(=C[C@@H]4C[C@H]1C(C)(C)O[C@@]2(C/C=C(/C)C(=O)O)C4=O)C3=O [GIA, Gambogic acid] | 4.6
